# According to US20030232851A1, “Viral treatment” (The Procter & Gamble Company, priority 1999, published 2003):
# Values joined by “and” are separate entries in the source; they are usually repeats but may differ in a detail not shown here. Equal values may be shown once.
# How the values were obtained:
# Type in all cases: cell-based
# [1] = tested on: Cryptococcus neoformans; assay: Anti-fungal activity (NCCLS M-27A based), Cryptococcus neoformans
# Method: (§1) It was active against cryptococcus neoformans and curvularai lunata. The cidal activity for the C. neoformans is high enough that it is clear […] against this yeast. This test was conducted using a method based upon NCCLS reference method M-27A published in 1997. Solvent, medium and growth controls were set-up with the tests. Once these were read to validate the test performance, the QC fungi were read to insure they had expected results. These steps validated the test system. DMSO was used as a drug-chemical solvent. […] The 90% cut-off is necessary for azoles, which are static and not cidal. The FMC or cidal level was determined by sub-culturing a sample from each tube showing no growth.
# [2] = tested on: Curvularia lunata; assay: Anti-fungal activity (NCCLS M-27A based), Curvularia lunata; conditions: growth inhibited or reduced at least 90%
# Method: as §1
# [3] = tested on: TPA-induced BCBL-1 cells; assay: Kaposi's Sarcoma test: toxicity values; design: Toxicity Values, samples 1-3 / Toxicity Values, average: scale not given here
# Method: (§2) The DNA copy number and the toxicity value were measured and compared with Cidofovir.
# [4] = tested on: HHV8 cell line, TPA-induced BCBL-1 cells; assay: Kaposi's Sarcoma (HHV8) in vitro test, DNA copy number
# Method: as §2
# [5] = growth inhibited or reduced at least 90%
molecule,measurement,setting,value
"C[C@@H]1[C@H](O)[C@@H](C)/C=C/C=C/C=C/C=C/C=C/C=C/C=C/[C@H](O[C@@H]2O[C@H](C)[C@@H](O)[C@H](N)[C@@H]2O)C[C@@H]2O[C@](O)(C[C@@H](O)C[C@@H](O)[C@H](O)CC[C@@H](O)C[C@@H](O)CC(=O)O[C@H]1C)C[C@H](O)[C@H]2C(=O)O [AmB, amphotericin B]",MFC data,[1]; cidal level,1 µg/mL
same,MIC data,[1]; [5],0.25 µg/mL
same,MIC data,[2],0.03 µg/mL
"Nc1ccn(C[C@@H](CO)OCP(=O)(O)O)c(=O)n1 [Cidofovir, reference compound]","Toxicity Values, % cell control",[3]; 0.08 μM,83.9%
same,"Toxicity Values, average",[3]; 0.08 μM,0.814
same,"Toxicity Values, samples 1-3",[3]; 0.08 μM,0.864 and 0.797 and 0.780
same,"Toxicity Values, % cell control",[3]; 0.25 μM,90.1%
same,"Toxicity Values, average",[3]; 0.25 μM,0.874
same,"Toxicity Values, samples 1-3",[3]; 0.25 μM,0.867 and 0.819 and 0.934
same,"Toxicity Values, % cell control",[3]; 0.8 μM,82.8%
same,"Toxicity Values, average",[3]; 0.8 μM,0.803
same,"Toxicity Values, samples 1-3",[3]; 0.8 μM,0.824 and 0.770 and 0.814
same,"Toxicity Values, % cell control",[3]; 2.5 μM,75.0%
same,"Toxicity Values, average",[3]; 2.5 μM,0.728
same,"Toxicity Values, samples 1-3",[3]; 2.5 μM,0.794 and 0.684 and 0.704
same,"Toxicity Values, % cell control",[3]; 8 μM,69.3%
same,"Toxicity Values, average",[3]; 8 μM,0.672
same,"Toxicity Values, samples 1-3",[3]; 8 μM,0.639 and 0.700 and 0.677
same,"Toxicity Values, % cell control",[3]; 25 μM,4403%
same,"Toxicity Values, average",[3]; 25 μM,0.430
same,"Toxicity Values, samples 1-3",[3]; 25 μM,0.443 and 0.398 and 0.447
same,"DNA Copy Number, % virus control",[4]; 0.08 μM,95.3%
same,"DNA Copy Number, average",[4]; 0.08 μM,8478.0 per 3 μl
same,"DNA Copy Number, samples 1-3",[4]; 0.08 μM,8485.1 per 3 μl and 7948.1 per 3 μl and 9000.8 per 3 μl
same,"DNA Copy Number, % virus control",[4]; 0.25 μM,75.0%
same,"DNA Copy Number, average",[4]; 0.25 μM,6666.9 per 3 μl
same,"DNA Copy Number, samples 1-3",[4]; 0.25 μM,6668.9 per 3 μl and 6336.3 per 3 μl and 6995.5 per 3 μl
same,"DNA Copy Number, % virus control",[4]; 0.8 μM,57.5%
same,"DNA Copy Number, average",[4]; 0.8 μM,5108.6 per 3 μl
same,"DNA Copy Number, % virus control",[4]; 2.5 μM,14.3%
same,"DNA Copy Number, average",[4]; 2.5 μM,1276.9 per 3 μl
same,"DNA Copy Number, samples 1-3",[4]; 2.5 μM,1329.8 per 3 μl and 1198.3 per 3 μl and 1275.7 per 3 μl
same,"DNA Copy Number, % virus control",[4]; 8 μM,0.0%
same,"DNA Copy Number, average",[4]; 8 μM,3.0 per 3 μl
same,"DNA Copy Number, % virus control",[4]; 25 μM,0.0%
same,"DNA Copy Number, average",[4]; 25 μM,0.0 per 3 μl
same,"DNA Copy Number, samples 1-3",[4]; 25 μM,0 per 3 μl and 0.0 per 3 μl
same,IC50,"[4]; Human gammaherpesvirus 8, BCBL1",1.1 µM
"methyl 1,2- benzimidazole carbamate or benomyl",MFC data,[1]; cidal level,>32 µg/mL
same,MIC data,[1]; [5],8 µg/mL
same,MIC data,[2],0.06 µg/mL
"CCC(C)n1ncn(-c2ccc(N3CCN(c4ccc(OCC5COC(Cn6cncn6)(c6ccc(Cl)cc6Cl)O5)cc4)CC3)cc2)c1=O (centres unmarked) [Itra, Itraconazole]",MFC,"[1]; Cryptococcus neoformans, cidal level",> 32 µg/mL
same,MIC,"[1]; Cryptococcus neoformans, growth inhibited or reduced at least 90%",0.03 µg/mL
same,MIC,[2]; Curvularia lunata,0.03 µg/mL
